Common to all, as to type: cell-based
One assay concerns human lung organoid. Nature of the assay: Lung fibrosis model with human lung organoid. The procedure: Specifically, human lung organoids cultured in respective scaffolds were treated with TGF-β for 3 days and then analyzed.
The next assay relates to mouse lung organoid. The assay is described as follows: Lung fibrosis model with mouse lung organoid. The procedure: Specifically, lung organoids were treated for 3 days at respective concentrations on day 4 of culture and analyzed on day 7. A lung organoid that was not treated with TGF-β (NT, No treatment) was used as a control group.
Assay [1] has as its system mouse cholangiocyte-derived liver organoids (CLOs). The assay is described as follows: Liver fibrosis model with mouse CLO. The procedure: For disease modeling using an LEM-based liver organoid, TGF-beta was screened at each concentration and the possibility of inducing liver fibrosis was checked. A model was induced using mouse cholangiocyte-derived liver organoids (CLOs) cultured for 7 days. To construct a liver fibrosis model, the organoids were treated with TGF-β at each concentration for 48 hours and observed.

For assay [2], the system named is human cholangiocyte-derived liver organoids (hCLOs). The assay is described as follows: Liver fibrosis model with hCLO. The settings on record: hCLO in LEM, 3 days. How it is done: Meanwhile, for disease modeling using human cholangiocyte-derived liver organoids (hCLOs) cultured in the LEM, TGF-β was tested at each concentration and the organoids were treated with the most appropriate concentration of TGF-β (80 ng/ml). Then, the possibility of inducing liver fibrosis was checked.
To verify a liver fibrosis model, SMA (Smooth Muscle Actin) was used for staining to determine the accumulated extracellular matrix (ECM) around the organoids. Through this experiment, it was verified that a human liver fibrosis model can be constructed using a liver organoid cultured in the LEM scaffold (FIG. 79B).

In the case of TGF-β, the “SMA, COL1 and VIM expression (immunostaining)” value with human lung organoid (3 days after treatment) is reported as “increased”. The “ACTA2, COL1A2 and TNF-α expression” value in the assay with human lung organoid (3 days, quantitative PCR) is “significantly increased”. Also, the “SMA and Col1 expression (immunostaining)” value with mouse lung organoid is on record as “increase as the TGF-β treatment concentration increases”. For the same substance, the Col1a2 expression result in the assay with mouse lung organoid (40 ng/ml) was “increased statistically significantly”. For the same substance, the “lung organoid shape and growth” value in the assay on mouse lung organoid (TGF-β each concentration, 3 days) was “changed in shape and did not grow well”. For the same substance, the “expression of liver fibrosis markers” value in assay [1] (4 ng/ml TGF-β, qPCR) is “highest”. The “liver organoid morphology and growth” value in assay [1] (TGF-β each concentration, 48 hours) was “changed in morphology and did not grow well”. For the same substance, in assay [1] (organoids cultured in LEM), the cholangiocyte marker expression entry is reported as “significantly decreased” and the fibrosis marker expression result is given as “greatly increased”. Also, the “liver organoid morphology and growth” value in assay [2] is “deformed in morphology and did not grow well”.

The values are drawn from US12534704B2, “Organ extracellular matrix-derived scaffold for culture and transplantation of organoid and method of preparing the same” (CELLARTGEN INC., priority 2020, dated 2026).
